Patent US8362027B2, “Iontophoretic preparation for treatment of breast cancer and/or mastitis” (Kowa Co., Ltd., priority 2005, dated 2013)
Where two headings read alike, the source gives them in different places. One block for each compound: values may come before it.

Legend:
[1] = not given; remark: listed apart in the source
[2] = nipple skin (corrected to nipple part only), no application of electric potential, 60 min
[3] = nipple skin (corrected to nipple part only), no application of electric potential, 120 min
[4] = nipple skin (corrected to nipple part only), no application of electric potential, 180 min
[5] = nipple skin, no application of electric potential

permeated amount of 5-fluorouracil (nipple skin (corrected to nipple part only), application of electric potential (3 V), 60 min): 17.6 μg/cm^2
permeated amount of 5-fluorouracil (nipple skin (corrected to nipple part only), application of electric potential (3 V), 120 min): 151.7 μg/cm^2
permeated amount of 5-fluorouracil (nipple skin (corrected to nipple part only), application of electric potential (3 V), 180 min): 383.3 μg/cm^2
permeated amount of 5-fluorouracil (nipple skin (corrected to nipple part only), application of electric potential (3 V), 240 min): 676.3 μg/cm^2
permeated amount of 5-fluorouracil (nipple skin (corrected to nipple part only), application of electric potential (3 V), 300 min): 1032.3 μg/cm^2
permeated amount of 5-fluorouracil (nipple skin (corrected to nipple part only), application of electric potential (3 V), 360 min): 1391.3 μg/cm^2
permeated amount of 5-fluorouracil [2]: 0.0 μg/cm^2
permeated amount of 5-fluorouracil [3]: 0.2 μg/cm^2
permeated amount of 5-fluorouracil [4]: 0.7 μg/cm^2
permeated amount of 5-fluorouracil (nipple skin (corrected to nipple part only), no application of electric potential, 240 min): 1.6 μg/cm^2
permeated amount of 5-fluorouracil (nipple skin (corrected to nipple part only), no application of electric potential, 300 min): 3.0 μg/cm^2
permeated amount of 5-fluorouracil (nipple skin (corrected to nipple part only), no application of electric potential, 360 min): 5.6 μg/cm^2
Increase rate of permeated amount after 360 minutes with respect to normal skin without application of electric potential (nipple skin, application of electric potential (3 V)): 9937.8
Increase rate of permeated amount after 360 minutes with respect to normal skin without application of electric potential [5]: 39.7
increase of permeability of 5-fluorouracil (nipple, compared with the permeability without application of electric potential): about 40 times
increase of permeability of 5-fluorouracil (nipple, electric potential applied (3V), vs normal skin): about 10000 times
Increase rate of permeated amount after 360 minutes with respect to normal skin without application of electric potential (normal skin, application of electric potential (3 V)): 3430.7
permeated amount of 5-fluorouracil (normal skin, application of electric potential (3 V), 60 min, donor 1%, pH 8.5): 1.3 μg/cm^2
permeated amount of 5-fluorouracil (normal skin, application of electric potential (3 V), 120 min, donor 1%, pH 8.5): 11.7 μg/cm^2
permeated amount of 5-fluorouracil (normal skin, application of electric potential (3 V), 180 min, donor 1%, pH 8.5): 44.4 μg/cm^2
permeated amount of 5-fluorouracil (normal skin, application of electric potential (3 V), 240 min, donor 1%, pH 8.5): 121.5 μg/cm^2
permeated amount of 5-fluorouracil (normal skin, application of electric potential (3 V), 300 min, donor 1%, pH 8.5): 264.9 μg/cm^2
permeated amount of 5-fluorouracil (normal skin, application of electric potential (3 V), 360 min, donor 1%, pH 8.5): 480.3 μg/cm^2
increase of permeability of 5-fluorouracil (normal skin, electric potential applied (3V), vs without potential): about 3000 times
permeated amount of 5-fluorouracil (normal skin, no application of electric potential, 60 min, donor 1%, pH 8.5): 0.0 μg/cm^2
permeated amount of 5-fluorouracil (normal skin, no application of electric potential, 120 min, donor 1%, pH 8.5): 0.0 μg/cm^2
permeated amount of 5-fluorouracil (normal skin, no application of electric potential, 180 min, donor 1%, pH 8.5): 0.0 μg/cm^2
permeated amount of 5-fluorouracil (normal skin, no application of electric potential, 240 min, donor 1%, pH 8.5): 0.0 μg/cm^2
permeated amount of 5-fluorouracil (normal skin, no application of electric potential, 300 min, donor 1%, pH 8.5): 0.1 μg/cm^2
permeated amount of 5-fluorouracil (normal skin, no application of electric potential, 360 min, donor 1%, pH 8.5): 0.1 μg/cm^2
Structure (SMILES): O=c1[nH]cc(F)c(=O)[nH]1 [5-fluorouracil]

Structure (SMILES): O=P1(N(CCCl)CCCl)NCCCO1 (stereo not shown) [cyclophosphamide]
permeated amount of cyclophosphamide ([1]; nipple skin (corrected to nipple part only), application of electric potential (0.1 mA/cm^2), 0 min): 0.0 μg/cm^2
permeated amount of cyclophosphamide ([1]; nipple skin (corrected to nipple part only), application of electric potential (0.1 mA/cm^2), 30 min): 34.3 μg/cm^2
permeated amount of cyclophosphamide ([1]; nipple skin (corrected to nipple part only), application of electric potential (0.1 mA/cm^2), 60 min): 123.2 μg/cm^2
permeated amount of cyclophosphamide ([1]; nipple skin (corrected to nipple part only), application of electric potential (0.1 mA/cm^2), 90 min): 125.3 μg/cm^2
permeated amount of cyclophosphamide ([1]; nipple skin (corrected to nipple part only), application of electric potential (0.1 mA/cm^2), 120 min): 121.4 μg/cm^2
permeated amount of cyclophosphamide ([1]; nipple skin (corrected to nipple part only), application of electric potential (0.1 mA/cm^2), 150 min): 120.4 μg/cm^2
permeated amount of cyclophosphamide ([1]; nipple skin (corrected to nipple part only), application of electric potential (0.1 mA/cm^2), 180 min): 123.1 μg/cm^2
permeated amount of cyclophosphamide ([1]; nipple skin (corrected to nipple part only), no application of electric potential, 0 min): 0.0 μg/cm^2
permeated amount of cyclophosphamide ([1]; nipple skin (corrected to nipple part only), no application of electric potential, 30 min): 24.9 μg/cm^2
permeated amount of cyclophosphamide [1, 2]: 2.0 μg/cm^2
permeated amount of cyclophosphamide ([1]; nipple skin (corrected to nipple part only), no application of electric potential, 90 min): 6.9 μg/cm^2
permeated amount of cyclophosphamide [1, 3]: 20.2 μg/cm^2
permeated amount of cyclophosphamide ([1]; nipple skin (corrected to nipple part only), no application of electric potential, 150 min): 1.4 μg/cm^2
permeated amount of cyclophosphamide [1, 4]: 6.9 μg/cm^2
Increase rate of permeated amount after 180 minutes with respect to normal skin without application of electric potential ([1]; nipple skin, application of electric potential (0.1 mA/cm^2)): 7.1
Increase rate of permeated amount after 180 minutes with respect to normal skin without application of electric potential [1, 5]: 0.4
change of permeability of cyclophosphamide ([1]; nipple without electric potential, compared with normal skin): not enhanced
increase of permeability of cyclophosphamide ([1]; nipple, electric potential (0.1 mA/cm^2), vs normal skin without potential): about 7.1 times
Increase rate of permeated amount after 180 minutes with respect to normal skin without application of electric potential ([1]; normal skin, application of electric potential (0.1 mA/cm^2)): 0.9
permeated amount of cyclophosphamide ([1]; normal skin, application of electric potential (0.1 mA/cm^2), 0 min, donor 25 mM, pH 3): 0.0 μg/cm^2
permeated amount of cyclophosphamide ([1]; normal skin, application of electric potential (0.1 mA/cm^2), 30 min, donor 25 mM, pH 3): 13.4 μg/cm^2
permeated amount of cyclophosphamide ([1]; normal skin, application of electric potential (0.1 mA/cm^2), 60 min, donor 25 mM, pH 3): 13.9 μg/cm^2
permeated amount of cyclophosphamide ([1]; normal skin, application of electric potential (0.1 mA/cm^2), 90 min, donor 25 mM, pH 3): 13.7 μg/cm^2
permeated amount of cyclophosphamide ([1]; normal skin, application of electric potential (0.1 mA/cm^2), 120 min, donor 25 mM, pH 3): 16.2 μg/cm^2
permeated amount of cyclophosphamide ([1]; normal skin, application of electric potential (0.1 mA/cm^2), 150 min, donor 25 mM, pH 3): 16.3 μg/cm^2
permeated amount of cyclophosphamide ([1]; normal skin, application of electric potential (0.1 mA/cm^2), 180 min, donor 25 mM, pH 3): 16.2 μg/cm^2
change of permeability of cyclophosphamide ([1]; normal skin, electric potential applied (0.1 mA/cm^2), vs without potential): hardly changed
permeated amount of cyclophosphamide ([1]; normal skin, no application of electric potential, 0 min, donor 25 mM, pH 3): 0.0 μg/cm^2
permeated amount of cyclophosphamide ([1]; normal skin, no application of electric potential, 30 min, donor 25 mM, pH 3): 13.3 μg/cm^2
permeated amount of cyclophosphamide ([1]; normal skin, no application of electric potential, 60 min, donor 25 mM, pH 3): 14.4 μg/cm^2
permeated amount of cyclophosphamide ([1]; normal skin, no application of electric potential, 90 min, donor 25 mM, pH 3): 15.0 μg/cm^2
permeated amount of cyclophosphamide ([1]; normal skin, no application of electric potential, 120 min, donor 25 mM, pH 3): 15.5 μg/cm^2
permeated amount of cyclophosphamide ([1]; normal skin, no application of electric potential, 150 min, donor 25 mM, pH 3): 17.2 μg/cm^2
permeated amount of cyclophosphamide ([1]; normal skin, no application of electric potential, 180 min, donor 25 mM, pH 3): 17.4 μg/cm^2
